ChEMBL document CHEMBL1201862, “PubChem BioAssay data set” (2004)
Calls of active or inactive are those of the source.

What was measured:
Candida albicans [1] = assay: fluconazole-resistant Candida strain growth inhibitors – CaCi-8 strain, dry powder, set 4, dose response (AID 488950); format: functional, organism-based
Candida albicans [2] = assay: resistant Candida growth with fluconazole co-treatment – CaCi-8 strain, Alamar Blue, dry powder, set 2, dose response (AID 488909); format: functional, organism-based
H4 = assay: Inhibitors of Prion Protein 5' UTR mRNA Measured in Cell-Based System Using Plate Reader - 2078-01_Inhibitor_Dose_DryPowder_Activity. [Related pubchem assays (depositor defined):AID488894]; format: functional; settings: Homo sapiens
Phospholipase D1 = Phospholipase D1 (Homo sapiens, UniProt Q13393); assay: PLD1 purified enzyme concentration response. [Related pubchem assays (depositor defined):AID588854]; format: functional
Phospholipase D2 = Phospholipase D2 (Homo sapiens, UniProt O14939); assay: PLD2 purified enzyme concentration response. [Related pubchem assays (depositor defined):AID588854]; format: functional
[3] = target: Dual specificity protein phosphatase 3 (Homo sapiens, UniProt P51452); assay: SAR VHR1 Fluorescent Assay for In Vitro dose response studies Set 3. [Related pubchem assays (depositor defined):AID1654, AID1661, AID1878]; format: functional
Trypsin = Trypsin (Sus scrofa, UniProt P00761); assay: trypsin protease activity blockade – biochemical, quenched peptide fluorescence, cherry-pick, selectivity assay for Rce1 protease inhibitor project, dose response (AID 488789)
CAAX prenyl protease 2 = CAAX prenyl protease 2 (Homo sapiens, UniProt Q9Y256); assay: inhibition of Ras-converting CAAX protease Rce1 – biochemical, yeast membranes, quenched-peptide fluorescence, cherry-pick, dose response (AID 588849)
[4] = target: DNA dC->dU-editing enzyme APOBEC-3G (Homo sapiens, UniProt Q9HC16); assay: Dose Response confirmation of small molecule APOBEC3G DNA Deaminase Inhibitors via a fluorescence-based single-stranded DNA deaminase assay. [Related pubchem assays (depositor defined):AID493012, AID493028]; format: functional
[5] = target: T1, Apoptotic protease-activating factor 1 (Homo sapiens, UniProt O14727); assay: activation of Apaf-1 mediated apoptosis – fluorescent, uHTS hits, dose response (AID 588554); format: functional
T1 sequence (O14727 whole entry): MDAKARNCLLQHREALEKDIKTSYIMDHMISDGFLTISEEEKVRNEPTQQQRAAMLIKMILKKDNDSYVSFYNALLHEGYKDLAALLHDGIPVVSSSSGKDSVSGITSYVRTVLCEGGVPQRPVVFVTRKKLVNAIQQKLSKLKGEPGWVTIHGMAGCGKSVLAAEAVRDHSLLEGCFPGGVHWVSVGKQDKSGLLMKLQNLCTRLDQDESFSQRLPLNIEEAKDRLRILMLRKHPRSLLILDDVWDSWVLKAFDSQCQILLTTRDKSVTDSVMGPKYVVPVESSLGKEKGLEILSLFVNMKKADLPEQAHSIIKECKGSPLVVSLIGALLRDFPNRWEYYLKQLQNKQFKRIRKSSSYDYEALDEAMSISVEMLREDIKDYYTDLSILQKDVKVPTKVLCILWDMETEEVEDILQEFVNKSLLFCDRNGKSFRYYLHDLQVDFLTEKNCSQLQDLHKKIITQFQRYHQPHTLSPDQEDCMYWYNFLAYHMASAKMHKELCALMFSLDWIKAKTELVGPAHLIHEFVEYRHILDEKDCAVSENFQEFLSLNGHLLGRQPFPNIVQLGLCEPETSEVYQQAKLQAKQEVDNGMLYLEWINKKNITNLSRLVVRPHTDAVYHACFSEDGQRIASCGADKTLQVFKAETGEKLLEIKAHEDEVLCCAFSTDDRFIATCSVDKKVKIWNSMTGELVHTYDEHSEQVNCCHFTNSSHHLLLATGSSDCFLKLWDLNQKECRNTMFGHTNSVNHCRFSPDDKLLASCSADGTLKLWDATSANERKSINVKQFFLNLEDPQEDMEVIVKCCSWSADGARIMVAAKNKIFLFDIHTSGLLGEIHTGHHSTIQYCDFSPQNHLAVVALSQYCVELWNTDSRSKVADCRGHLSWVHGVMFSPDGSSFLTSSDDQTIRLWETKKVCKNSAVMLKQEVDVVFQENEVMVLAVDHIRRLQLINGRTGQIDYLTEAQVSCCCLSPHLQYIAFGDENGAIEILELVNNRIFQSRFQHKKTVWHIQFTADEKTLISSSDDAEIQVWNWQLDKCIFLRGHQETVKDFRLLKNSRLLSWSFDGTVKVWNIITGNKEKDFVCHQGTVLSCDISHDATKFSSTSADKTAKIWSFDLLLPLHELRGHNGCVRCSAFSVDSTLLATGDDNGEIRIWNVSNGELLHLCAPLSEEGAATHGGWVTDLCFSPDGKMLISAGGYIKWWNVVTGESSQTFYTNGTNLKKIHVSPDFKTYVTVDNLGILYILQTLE

[6] = target: Beta-adrenergic receptor kinase 1 (Homo sapiens, UniProt P25098); assay: aptamer displacement from bead-bound GRK2 – biochemical, cherry pick 1, bead flow cytometry, dose response (AID 504500)
[7] = target: T2, Voltage-gated N-type calcium channel alpha-1B subunit/Amyloid beta A4 precursor protein-binding family A member 1 (Homo sapiens, UniProt Q00975+Q02410); format: protein assay
[8] = target: T3, Carboxy-terminal domain RNA polymerase II polypeptide A small phosphatase 1 (Homo sapiens, UniProt Q9GZU7); assay: CTDSP1 inhibitors, concentration-response, biochemical, absorbance readout, ultra-high-throughput screen actives (AID 540297); format: functional
T3 sequence (Q9GZU7 whole entry): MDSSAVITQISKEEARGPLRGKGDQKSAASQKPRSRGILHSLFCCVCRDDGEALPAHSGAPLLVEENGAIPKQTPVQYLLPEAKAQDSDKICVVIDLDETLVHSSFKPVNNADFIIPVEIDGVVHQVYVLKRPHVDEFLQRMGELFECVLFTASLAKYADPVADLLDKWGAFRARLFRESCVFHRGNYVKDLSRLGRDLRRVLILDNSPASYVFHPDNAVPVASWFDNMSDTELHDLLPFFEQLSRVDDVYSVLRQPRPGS

[9] = target: DNA dC->dU-editing enzyme APOBEC-3A (Homo sapiens, UniProt P31941); assay: A3A deaminase inhibition for selectivity – biochemical, dose response (AID 504722); format: functional
[10] = target: T2, Voltage-gated N-type calcium channel alpha-1B subunit/Amyloid beta A4 precursor protein-binding family A member 1; format: protein assay; remark: listed apart in the source

T2 sequence (Q00975 whole entry, the tested form may be a part): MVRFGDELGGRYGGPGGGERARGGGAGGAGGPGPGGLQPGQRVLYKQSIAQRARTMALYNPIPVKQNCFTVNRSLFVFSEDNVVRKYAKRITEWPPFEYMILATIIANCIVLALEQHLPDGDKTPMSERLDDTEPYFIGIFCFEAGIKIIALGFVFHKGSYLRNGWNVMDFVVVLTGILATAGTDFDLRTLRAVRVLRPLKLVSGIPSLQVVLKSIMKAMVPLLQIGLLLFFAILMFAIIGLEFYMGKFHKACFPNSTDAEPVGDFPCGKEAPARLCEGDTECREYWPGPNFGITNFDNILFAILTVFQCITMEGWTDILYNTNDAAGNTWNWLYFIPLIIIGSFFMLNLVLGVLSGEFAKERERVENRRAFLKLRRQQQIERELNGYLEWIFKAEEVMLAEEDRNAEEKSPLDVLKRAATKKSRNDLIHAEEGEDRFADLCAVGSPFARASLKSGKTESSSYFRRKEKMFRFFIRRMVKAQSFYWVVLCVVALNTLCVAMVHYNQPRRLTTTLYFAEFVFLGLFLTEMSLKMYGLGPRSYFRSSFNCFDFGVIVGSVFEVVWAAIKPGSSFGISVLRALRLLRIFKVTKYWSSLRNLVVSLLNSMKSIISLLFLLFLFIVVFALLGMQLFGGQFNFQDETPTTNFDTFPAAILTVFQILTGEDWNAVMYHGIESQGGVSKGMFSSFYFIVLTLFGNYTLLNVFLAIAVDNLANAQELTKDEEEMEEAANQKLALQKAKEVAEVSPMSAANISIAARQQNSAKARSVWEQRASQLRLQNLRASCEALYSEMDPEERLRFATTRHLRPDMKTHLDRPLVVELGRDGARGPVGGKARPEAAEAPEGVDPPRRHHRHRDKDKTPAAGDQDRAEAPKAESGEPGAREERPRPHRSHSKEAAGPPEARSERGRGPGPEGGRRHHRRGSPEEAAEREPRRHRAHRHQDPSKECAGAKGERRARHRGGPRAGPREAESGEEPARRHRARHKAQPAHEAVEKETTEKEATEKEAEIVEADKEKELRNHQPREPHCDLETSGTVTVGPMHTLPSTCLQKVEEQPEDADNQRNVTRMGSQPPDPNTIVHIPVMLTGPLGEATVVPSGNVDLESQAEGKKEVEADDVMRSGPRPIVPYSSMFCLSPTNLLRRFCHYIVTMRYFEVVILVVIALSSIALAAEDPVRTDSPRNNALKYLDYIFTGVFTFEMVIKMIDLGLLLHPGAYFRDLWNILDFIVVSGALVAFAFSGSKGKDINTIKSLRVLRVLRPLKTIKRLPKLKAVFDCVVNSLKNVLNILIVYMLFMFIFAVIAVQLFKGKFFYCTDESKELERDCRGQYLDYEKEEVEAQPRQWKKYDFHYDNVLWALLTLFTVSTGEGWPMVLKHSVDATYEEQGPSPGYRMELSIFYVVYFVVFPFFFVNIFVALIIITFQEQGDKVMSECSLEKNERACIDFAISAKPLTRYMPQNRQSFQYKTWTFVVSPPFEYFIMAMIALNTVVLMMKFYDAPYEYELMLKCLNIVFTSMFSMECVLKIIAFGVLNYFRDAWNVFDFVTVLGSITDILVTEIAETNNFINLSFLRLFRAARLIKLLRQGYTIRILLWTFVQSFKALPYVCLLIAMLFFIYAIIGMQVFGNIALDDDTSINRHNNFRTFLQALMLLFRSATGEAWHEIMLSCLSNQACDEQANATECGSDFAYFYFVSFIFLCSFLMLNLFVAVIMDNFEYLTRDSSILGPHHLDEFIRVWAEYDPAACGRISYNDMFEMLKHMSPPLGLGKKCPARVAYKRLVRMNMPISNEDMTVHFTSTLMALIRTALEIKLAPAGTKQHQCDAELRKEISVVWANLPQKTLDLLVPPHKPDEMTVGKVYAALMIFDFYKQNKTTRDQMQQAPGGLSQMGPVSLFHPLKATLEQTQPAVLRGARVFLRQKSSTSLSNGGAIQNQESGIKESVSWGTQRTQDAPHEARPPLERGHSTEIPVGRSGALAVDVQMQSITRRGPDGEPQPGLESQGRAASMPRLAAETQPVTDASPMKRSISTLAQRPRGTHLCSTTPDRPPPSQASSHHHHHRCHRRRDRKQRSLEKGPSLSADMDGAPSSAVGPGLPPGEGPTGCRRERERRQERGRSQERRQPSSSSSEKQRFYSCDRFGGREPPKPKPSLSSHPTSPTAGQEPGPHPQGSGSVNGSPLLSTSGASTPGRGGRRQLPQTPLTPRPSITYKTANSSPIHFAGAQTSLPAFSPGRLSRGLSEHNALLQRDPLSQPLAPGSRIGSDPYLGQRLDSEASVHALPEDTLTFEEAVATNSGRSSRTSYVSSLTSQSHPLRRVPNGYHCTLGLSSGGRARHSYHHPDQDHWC
T2 sequence (Q02410 whole entry, the tested form may be a part): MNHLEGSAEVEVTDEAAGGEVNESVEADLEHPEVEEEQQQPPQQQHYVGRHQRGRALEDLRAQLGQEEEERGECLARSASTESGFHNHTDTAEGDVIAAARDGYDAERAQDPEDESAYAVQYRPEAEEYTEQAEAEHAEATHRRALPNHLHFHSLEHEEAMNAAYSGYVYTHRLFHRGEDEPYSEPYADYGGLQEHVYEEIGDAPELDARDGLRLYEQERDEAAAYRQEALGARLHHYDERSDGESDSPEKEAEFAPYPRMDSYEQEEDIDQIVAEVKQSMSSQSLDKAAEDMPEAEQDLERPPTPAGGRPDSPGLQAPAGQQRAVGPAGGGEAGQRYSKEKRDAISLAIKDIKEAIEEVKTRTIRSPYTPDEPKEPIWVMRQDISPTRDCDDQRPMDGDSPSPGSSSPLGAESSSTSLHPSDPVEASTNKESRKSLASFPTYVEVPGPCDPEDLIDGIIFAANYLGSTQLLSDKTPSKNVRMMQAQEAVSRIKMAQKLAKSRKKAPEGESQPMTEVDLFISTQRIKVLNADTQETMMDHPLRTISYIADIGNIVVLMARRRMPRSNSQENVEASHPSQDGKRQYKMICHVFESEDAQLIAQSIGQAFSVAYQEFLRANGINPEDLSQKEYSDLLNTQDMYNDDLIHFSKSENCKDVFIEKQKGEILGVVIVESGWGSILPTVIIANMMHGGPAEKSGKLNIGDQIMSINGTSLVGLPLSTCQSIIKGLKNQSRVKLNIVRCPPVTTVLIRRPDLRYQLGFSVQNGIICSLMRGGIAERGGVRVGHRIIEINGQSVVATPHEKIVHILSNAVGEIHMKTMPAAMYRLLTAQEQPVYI
Trypsin, sequence (P00761 whole entry): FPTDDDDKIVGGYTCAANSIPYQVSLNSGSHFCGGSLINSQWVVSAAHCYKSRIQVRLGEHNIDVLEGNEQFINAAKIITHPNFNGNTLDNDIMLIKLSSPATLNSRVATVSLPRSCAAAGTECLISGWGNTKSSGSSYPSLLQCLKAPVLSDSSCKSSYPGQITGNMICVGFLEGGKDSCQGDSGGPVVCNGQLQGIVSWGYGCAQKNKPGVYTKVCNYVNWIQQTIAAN
DNA dC->dU-editing enzyme APOBEC-3A, sequence (P31941 whole entry): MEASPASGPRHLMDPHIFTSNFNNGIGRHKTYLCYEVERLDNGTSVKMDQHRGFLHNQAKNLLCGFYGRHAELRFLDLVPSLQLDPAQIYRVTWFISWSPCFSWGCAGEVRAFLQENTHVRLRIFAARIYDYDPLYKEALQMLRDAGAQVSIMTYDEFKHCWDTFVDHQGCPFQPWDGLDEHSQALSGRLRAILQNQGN
Phospholipase D1, sequence (Q13393 whole entry): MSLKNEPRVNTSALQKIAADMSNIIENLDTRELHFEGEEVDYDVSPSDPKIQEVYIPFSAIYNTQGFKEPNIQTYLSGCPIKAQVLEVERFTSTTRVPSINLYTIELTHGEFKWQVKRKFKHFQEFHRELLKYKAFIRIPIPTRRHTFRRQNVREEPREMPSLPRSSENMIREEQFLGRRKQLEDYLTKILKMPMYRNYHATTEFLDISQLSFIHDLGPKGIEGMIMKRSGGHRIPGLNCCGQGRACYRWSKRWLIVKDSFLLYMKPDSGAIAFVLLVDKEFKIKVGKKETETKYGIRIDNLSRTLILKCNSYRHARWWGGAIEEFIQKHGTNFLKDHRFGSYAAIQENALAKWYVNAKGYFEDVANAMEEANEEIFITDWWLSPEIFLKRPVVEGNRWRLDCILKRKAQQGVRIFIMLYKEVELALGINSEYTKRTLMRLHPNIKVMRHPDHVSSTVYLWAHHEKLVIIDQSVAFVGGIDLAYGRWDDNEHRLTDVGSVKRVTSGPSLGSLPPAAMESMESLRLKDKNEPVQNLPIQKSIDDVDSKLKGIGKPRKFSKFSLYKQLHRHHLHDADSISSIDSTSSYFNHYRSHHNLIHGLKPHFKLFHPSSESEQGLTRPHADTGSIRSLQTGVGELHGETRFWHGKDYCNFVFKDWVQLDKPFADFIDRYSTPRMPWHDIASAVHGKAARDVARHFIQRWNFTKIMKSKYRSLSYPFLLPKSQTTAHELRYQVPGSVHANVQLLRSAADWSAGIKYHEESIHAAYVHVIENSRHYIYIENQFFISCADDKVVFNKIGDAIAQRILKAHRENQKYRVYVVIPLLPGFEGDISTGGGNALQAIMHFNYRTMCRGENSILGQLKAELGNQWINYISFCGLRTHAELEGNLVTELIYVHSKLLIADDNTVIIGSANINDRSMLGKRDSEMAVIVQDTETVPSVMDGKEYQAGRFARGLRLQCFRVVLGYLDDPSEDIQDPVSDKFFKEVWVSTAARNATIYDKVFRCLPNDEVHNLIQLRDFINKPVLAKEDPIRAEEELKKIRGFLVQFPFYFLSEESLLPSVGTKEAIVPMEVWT
DNA dC->dU-editing enzyme APOBEC-3G, sequence (Q9HC16 whole entry): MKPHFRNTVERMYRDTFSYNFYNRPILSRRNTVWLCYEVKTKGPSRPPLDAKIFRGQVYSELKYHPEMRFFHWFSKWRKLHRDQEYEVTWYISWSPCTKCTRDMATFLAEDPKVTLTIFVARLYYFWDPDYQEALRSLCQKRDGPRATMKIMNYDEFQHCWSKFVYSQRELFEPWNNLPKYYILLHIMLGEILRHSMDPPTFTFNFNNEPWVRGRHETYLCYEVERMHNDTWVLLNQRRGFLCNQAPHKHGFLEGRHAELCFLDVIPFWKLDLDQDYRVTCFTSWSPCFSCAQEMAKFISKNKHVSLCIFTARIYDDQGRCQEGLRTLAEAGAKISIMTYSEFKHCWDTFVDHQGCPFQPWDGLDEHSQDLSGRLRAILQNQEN

Structure (SMILES): CCCC(=O)N1CCN(c2ccnc3cc(Cl)ccc23)CC1
- AC50 (Candida albicans [1]): 16.9 µM (active)
- AC50 (Candida albicans [2]): 5.59 µM (active)

Structure (SMILES): COc1ccc(NC=C2C(=O)c3ccccc3C2=O)c(OC)c1
- AC50 (H4): 1.75 µM (active)

Structure (SMILES): O=C(NCCN1CCC2(CC1)C(=O)NCN2c1ccc(Br)cc1)c1cc2cc(F)ccc2[nH]1
- IC50 (Phospholipase D1): 5 µM (active)
- IC50 (Phospholipase D2): 0.028 µM (active)

Structure (SMILES): COc1ccc(-c2nnc(Nc3nc4c(F)cccc4s3)o2)c(OC)c1
- IC50 [3]: 13.7 µM (active)

Structure (SMILES): Cc1ccnc(SCc2cn3c(C)cc(C)nc3n2)n1
- AC50 (Trypsin): 20.2 µM (active)
- AC50 (CAAX prenyl protease 2): > 100 µM (inactive)

Structure (SMILES): C=C(C)C(=O)Nc1cccc(C2=NOC3(C2)C[C@@H](C(N)=O)N(C(=O)CCCCC)C3)c1 (stereo not given in full)
- IC50 [4]: 2.82 µM (active)
- EC50 [5]: 2.96 µM (active)
- EC50 [6]: 0.11 µM (active)
- IC50 [7]: 10.2 µM (active)
- IC50 [8]: 0.9 µM (active)
- IC50 [9]: > 100 µM (inactive)
- IC50 [10]: > 50 µM (inactive)
